Reference: patent US9073881B2, “Benzoic acid derivatives” (HOFFMANN-LA ROCHE INC., priority 2011, dated 2015)

Molecular target: Human eIF4E (Homo sapiens (Human), UniProt P06730)
Assay: Human eIF4E/4G binding assay (time-resolved fluorescence, HH-eIF4E and biotin-labeled 4G2 peptide)
Settings: inhibition of binding of His-tagged human eIF4E (aa 28-217) to biotin-labeled 4G2 peptide

Sequence of Human eIF4E (P06730 28-217): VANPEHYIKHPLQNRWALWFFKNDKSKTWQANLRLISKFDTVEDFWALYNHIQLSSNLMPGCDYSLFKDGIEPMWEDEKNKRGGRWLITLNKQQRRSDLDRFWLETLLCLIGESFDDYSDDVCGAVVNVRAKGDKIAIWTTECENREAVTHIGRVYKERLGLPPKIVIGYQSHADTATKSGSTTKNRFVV

SMILES	IC50 [µM]
O=C(O)c1cc(-c2nc(-c3ccc(Cl)c(Cl)c3)cs2)ccc1-c1cncc(Cl)c1 [Example 102, 2-(5-Chloro-pyridin-3-yl)-5-[4-(3,4-dichloro-phenyl)-thiazol-2-yl]-benzoic acid]	5.4
CCOc1ncc(-c2ccc(-c3nc(-c4ccc(Cl)c(Cl)c4)cs3)cc2C(=O)O)cn1 [Example 82, 5-[4-(3,4-Dichloro-phenyl)-thiazol-2-yl]-2-(2-ethoxy-pyrimidin-5-yl)-benzoic acid]	3.6
O=C(O)c1cc(-c2nc(-c3ccc(Cl)c(Cl)c3)cs2)ccc1-c1cc(O)ccc1Cl [Example 95, 2′-Chloro-4-[4-(3,4-dichloro-phenyl)-thiazol-2-yl]-5′-hydroxy-biphenyl-2-carboxylic acid]	3.4
O=C(O)c1cc(-c2nc(-c3cc(C(F)(F)F)cc(C(F)(F)F)c3)cs2)ccc1-c1ccccc1[N+](=O)[O-] [Example 8, 4-[4-(3,5-Bis-trifluoromethyl-phenyl)-thiazol-2-yl]-2′-nitro-biphenyl-2-carboxylic acid]	2.5
O=C(O)c1cc(-c2nc(-c3ccc(Cl)c(Cl)c3)cs2)ccc1-c1ccsc1Cl [Example 145, 2-(2-Chloro-thiophen-3-yl)-5-[4-(3,4-dichloro-phenyl)-thiazol-2-yl]-benzoic acid]	2.2
CS(=O)(=O)c1ccc(-c2csc(-c3ccc(-c4ccccc4[N+](=O)[O-])c(C(=O)O)c3)n2)cc1 [Example 33, 4-[4-(4-Methanesulfonyl-phenyl)-thiazol-2-yl]-2′-nitro-biphenyl-2-carboxylic acid]	> 80
